Results from BindingDB's records for doi:10.1016/j.bmcl.2010.09.011 (The University of Tokyo, 2010).

How the values were obtained:
[1] = Vitamin-D activity at VDR receptor in human HL60 cells assessed as induction of cell differentiation by NBT reduction assay
[2] = Antiandrogen activity against androgen receptor in androgen-dependent mouse SC3 cells assessed as inhibition of testosterone-induced cell proliferation by WST1 assay

SMILES	EC50 [1] [µM]	IC50 [2] [µM]
CCC(CC)(c1ccc(OCC(O)C(C)(C)CCc2ccccc2)c(C)c1)c1ccc(OC[C@@H](O)CO)c(C)c1 (stereo partly drawn) [(2S)-3-(4-(3-(4-(2-hydroxy-3,3-dimethyl-5-phenylpentyloxy)-3-methylphenyl)pentan-3-yl)-2-methylphenoxy)propane-1,2-diol]	7.1	0.88
CCC(CC)(c1ccc(OC[C@H](O)CO)c(C)c1)c1ccc(OC[C@H](O)C(C)(C)C)c(C)c1 [(R)-3-(4-(3-(4-((R)-2-hydroxy-3,3-dimethylbutoxy)-3-methylphenyl)pentan-3-yl)-2-methylphenoxy)propane-1,2-diol]	–	0.014
CCC(CC)(c1ccc(OCC(=O)C(C)(C)CCc2ccccc2)c(C)c1)c1ccc(OC[C@@H](O)CO)c(C)c1 [(S)-1-(4-(3-(4-(2,3-dihydroxypropoxy)-3-methylphenyl)pentan-3-yl)-2-methylphenoxy)-3,3-dimethyl-5-phenylpentan-2-one]	23	1.1
CCC(CC)(c1ccc(OCC(O)C(C)(C)Cc2ccc3ccccc3c2)c(C)c1)c1ccc(OC[C@@H](O)CO)c(C)c1 (stereo partly drawn) [(2S)-3-(4-(3-(4-(2-hydroxy-3,3-dimethyl-4-(naphthalen-2-yl)butoxy)-3-methylphenyl)pentan-3-yl)-2-methylphenoxy)propane-1,2-diol]	> 30	> 10
CCC(CC)(c1ccc(OC[C@@H](O)CO)c(C)c1)c1ccc(O[C@@H]2CN(C(=O)OCc3ccccc3)C[C@@H]2O)c(C)c1 [benzyl 3-(4-(3-(4-((S)-2,3-dihydroxypropoxy)-3-methylphenyl)pentan-3-yl)-2-methylphenoxy)-4-hydroxypyrrolidine-1-carboxylate]	> 30	> 30
CCC(CC)(c1ccc(OCC(=O)C(C)(C)Cc2ccc3ccccc3c2)c(C)c1)c1ccc(OC[C@@H](O)CO)c(C)c1 [(S)-1-(4-(3-(4-(2,3-dihydroxypropoxy)-3-methylphenyl)pentan-3-yl)-2-methylphenoxy)-3,3-dimethyl-4-(naphthalen-2-yl)butan-2-one]	> 30	> 30
CCC(CC)(c1ccc(OCC(O)C(C)(C)CCCc2ccccc2)c(C)c1)c1ccc(OC[C@@H](O)CO)c(C)c1 (stereo partly drawn) [(2S)-3-(4-(3-(4-(2-hydroxy-3,3-dimethyl-6-phenylhexyloxy)-3-methylphenyl)pentan-3-yl)-2-methylphenoxy)propane-1,2-diol]	3.6	0.13
CCC(CC)(c1ccc(OC[C@H](O)CO)c(C)c1)c1ccc(OC[C@@H](O)C(C)(C)C)c(C)c1 [(R)-3-(4-(3-(4-((S)-2-hydroxy-3,3-dimethylbutoxy)-3-methylphenyl)pentan-3-yl)-2-methylphenoxy)propane-1,2-diol]	–	0.068
CCC(CC)(c1ccc(OCC(=O)C(C)(C)C)c(C)c1)c1ccc(OC[C@H](O)CO)c(C)c1 [(R)-1-(4-(3-(4-(2,3-dihydroxypropoxy)-3-methylphenyl)pentan-3-yl)-2-methylphenoxy)-3,3-dimethylbutan-2-one]	–	0.015
CCC(CC)(c1ccc(OC[C@@H](O)CO)c(C)c1)c1ccc(O[C@@H]2CN(Cc3ccccc3)C[C@@H]2O)c(C)c1 [(2S)-3-(4-(3-(4-(1-benzyl-4-hydroxypyrrolidin-3-yloxy)-3-methylphenyl)pentan-3-yl)-2-methylphenoxy)propane-1,2-diol]	> 30	> 10
CCC(CC)(c1ccc(OCC(=O)C(C)(C)CCCCc2ccccc2)c(C)c1)c1ccc(OC[C@@H](O)CO)c(C)c1 [(S)-1-(4-(3-(4-(2,3-dihydroxypropoxy)-3-methylphenyl)pentan-3-yl)-2-methylphenoxy)-3,3-dimethyl-7-phenylheptan-2-one]	> 30	> 30
CCC(CC)(c1ccc(OCC(=O)C23CC4CC(CC(C4)C2)C3)c(C)c1)c1ccc(OC[C@@H](O)CO)c(C)c1	> 30	> 30
CCC(CC)(c1ccc(OCC(O)C(C)(C)Cc2ccccc2)c(C)c1)c1ccc(OC[C@@H](O)CO)c(C)c1 (stereo partly drawn) [(2S)-3-(4-(3-(4-(2-hydroxy-3,3-dimethyl-4-phenylbutoxy)-3-methylphenyl)pentan-3-yl)-2-methylphenoxy)propane-1,2-diol]	11	1.7
CCC(CC)(c1ccc(OCC(O)C(C)(C)CCCCc2ccccc2)c(C)c1)c1ccc(OC[C@@H](O)CO)c(C)c1 (stereo partly drawn) [(2S)-3-(4-(3-(4-(2-hydroxy-3,3-dimethyl-7-phenylheptyloxy)-3-methylphenyl)pentan-3-yl)-2-methylphenoxy)propane-1,2-diol]	> 30	> 10
CCC(CC)(c1ccc(OC[C@@H](O)CO)c(C)c1)c1ccc(OC[C@H](O)C(C)(C)C)c(C)c1 [(2S)-3-{4-[1-ethyl-1-(4-{[(2R)-2-hydroxy-3,3-dimethylbutyl]oxy}-3-methylphenyl)propyl]-2-methylphenoxy}propane-1,2-diol]	–	0.003
CCC(CC)(c1ccc(OCC(=O)C(C)(C)C)c(C)c1)c1ccc(OCC(O)CO)c(C)c1 (stereo not given) [LG190178]	0.09	–
CCC(CC)(c1ccc(OCC(=O)C(C)(C)Cc2ccccc2)c(C)c1)c1ccc(OC[C@@H](O)CO)c(C)c1 [(S)-1-(4-(3-(4-(2,3-dihydroxypropoxy)-3-methylphenyl)pentan-3-yl)-2-methylphenoxy)-3,3-dimethyl-4-phenylbutan-2-one]	21	> 10
CCC(CC)(c1ccc(OCC(=O)C(C)(C)C)c(C)c1)c1ccc(OC[C@@H](O)CO)c(C)c1 [(S)-1-(4-(3-(4-(2,3-dihydroxypropoxy)-3-methylphenyl)pentan-3-yl)-2-methylphenoxy)-3,3-dimethylbutan-2-one]	–	0.032
CCC(CC)(c1ccc(OCC(=O)C(C)(C)CCCc2ccccc2)c(C)c1)c1ccc(OC[C@@H](O)CO)c(C)c1 [(S)-1-(4-(3-(4-(2,3-dihydroxypropoxy)-3-methylphenyl)pentan-3-yl)-2-methylphenoxy)-3,3-dimethyl-6-phenylhexan-2-one]	> 30	9.8
CCC(CC)(c1ccc(OCC(O)C23CC4CC(CC(C4)C2)C3)c(C)c1)c1ccc(OC[C@@H](O)CO)c(C)c1 (stereo not given in full)	22	> 10
CCC(CC)(c1ccc(OC[C@@H](O)CO)c(C)c1)c1ccc(OC[C@@H](O)C(C)(C)C)c(C)c1 [(S)-3-(4-(3-(4-((S)-2-hydroxy-3,3-dimethylbutoxy)-3-methylphenyl)pentan-3-yl)-2-methylphenoxy)propane-1,2-diol]	–	0.013
